Entries after “also recorded” stand apart in the source; their conditions may differ.
What was measured:
[1] = biological target: T1, α-syn fibrils (Homo sapiens, UniProt P37840); test: α-Syn fibril/ligand binding assay (fluorescence saturation binding); conditions: for selectivity for α-syn versus Aβ fibrils (comparison of Kd values): Kd Aβ fibrils vs Kd α-syn fibrils; for Kd: synthetic α-syn fibrils 2.5 μM, PBS, 37° C., 1 h
T1 construct: purchased R-peptide S-1001-2
Method: To this suspension was added 0.2 mL phosphate buffer (10 mM, pH 7.5). The soluble materials were removed by spinning for 5 min in a centrifuge (18000 g/s). The process was repeated four times. After the fourth time, the peptide was transferred into a microtube (200 μl), and 2.5 μl of 300 mM MnCl (made in water) was added. […] The fibrils formed were spun down at 21,000 g/s for 6 min. The supernatant was discarded, and the fibril pellet was resuspended in 200 μl PBS buffer (pH=7.4).
The mixture was incubated at 37° C. for 1 h with shaking. The mixture was spun down at 21,000 g/s for 15 min to separate the fibrils. The precipitate was washed twice with Tris-HCl and resuspended in 200 μL buffer. […] All data points were performed in triplicate. The Kd and the maximal number of binding sites (Bmax) values were determined by fitting the data to the equation Y=Bmax×X/(X+Kd) by nonlinear regression using MATLAB software (R2019B).

[2] = biological target: T2, α-syn pathology (Lewy pathology) in human PD brain tissue (Homo sapiens, UniProt P37840); test: Fluorescent staining of post-mortem human PD brain tissue sections; conditions: frontal cortex sections, co-stained with Syn211 or Syn303, confocal microscopy
T2 construct: tissue NIH Neurobiobank; host or cells: post-mortem human PD brain sections (frontal cortex, pons)
Method: Sections from the pons and frontal-cortex of the PD brain were permeabilized and treated sequentially with antibody [Anti-alpha-Synuclein (aa 121-125) Antibody, clone Syn 211] and 1 μM solution of each compound and visualized by confocal microscopy. […] Column II depicts ligand fluorescence. Column III depicts fluorescence from the antibody. Column IV is a composite image created by merging the first three images. […] The pattern and labeling intensity appear similar in the antibody channel. […] In up close Z-stacked images of the treated tissue (Row C), the pathology appears to surround dark holes (arrows) in the ligand and antibody channels.
To further characterize the sites labeled by the ligands and antibody Syn211 tissue staining experiments, contiguous cortical sections were treated with compound 8 and then either Syn211 or Syn303. As expected, the sections treated with compound 8 and Syn211 (FIG. 17, first row) show identical ligand and antibody labeling patterns that colocalize in the composite image. Both the ligand and antibody appear to label all forms of pathology present on the tissue. […]
Midbrain tissue (Frontal cortex 5469) was embedded with Tissue-Tek O.C.T. Compound and kept in liquid nitrogen for 30 min. […] The tissue was imaged with Lecia DMi8 Motorized Fluorescence Microscope using standard excitation/emission filters for Alexa Fluor 488 or Alexa Fluor 647.

[3] = tested on: β-amyloid plaques in human AD brain tissue; test: Fluorescent staining of post-mortem human AD brain tissue sections; conditions: cortical sections, co-stained with 4G8 antibody
Description: To assess the observed selectivity in α-syn versus Aβ fibril binding on aggregates in human tissue, equimolar concentrations of ligands 8, 32, and 37 were further evaluated on PD tissue as described above, alongside cortical sections from neuropathologically verified post-mortem brain samples of AD patients. […] A similar labeling pattern and efficiency are observed in the antibody channel (column III). […] The antibody, anti-β-Amyloid, 17-24 Antibody (4G8), highlights both dense core and diffuse Aβ pathology (column III).
Midbrain tissue (Frontal cortex 5590) was embedded with Tissue-Tek O.C.T. Compound and kept in liquid nitrogen for 30 mins. The embedded tissue was sliced into 30 μm thick sections with Lecia Biosystems Cryostats under −20° C. and mounted onto Precleaned Microscope Slides. The section was washed with 1× PBST two times and then loaded into 10% formalin solution for 20 mins. The section was washed with 1× PBS three times and permeabilized with 0.1% Triton-X 100 for 10 min. The section was washed with 1× PBS two times and incubated with 2% normal Donkey serum at room temperature for 1 h. […] The tissue was imaged with Lecia DMi8 Motorized Fluorescence Microscope using standard excitation/emission filters for Alexa Fluor 488 or Alexa Fluor 647.

Row | SMILES | selectivity for α-syn versus Aβ fibrils (comparison of Kd values) [1] | Kd [1] | labeling of Lewy pathology in PD brain sections [2] | labeling of Aβ pathology in AD brain sections [3]
1 | O=C(O)c1ccc(-c2ccc(/C=C/C=C3\Cc4ccc(O)cc4C3=O)cc2)cc1 [compound 32, 4′-((E)-3-((E)-6-Hydroxy-1-oxo-1,3-dihydro-2H-inden-2-ylidene)prop-1-en-1-yl)-[1,1′-biphenyl]-4-carboxylic acid] | 26 fold | 18.8 nM | avid labeling of Lewy pathology | –
2 | COc1cc(/C=C/C=C2\Cc3ccccc3C2=O)ccc1O [compound 8, (E)-2-((E)-3-(4-Hydroxy-3-methoxyphenyl)allylidene)-2,3-dihydro-1H-inden-1-one] | 14.4 fold | 9.7 nM | avidly labels Lewy pathology; also recorded: labels all conformations of the pathology; also recorded: avid labeling of both large and fine deposits of the pathology | mostly dense core Aβ plaques

Source: patent publication US11779664B2, “Targeted contrast agents for MRI of alpha-synuclein deposition” (Texas Children's Hospital, priority 2020, dated 2023)
